# Source: ChEMBL document CHEMBL1649134, “Occurrence of efflux mechanism and cephalosporinase variant in a population of Enterobacter aerogenes and Klebsiella pneumoniae isolates producing extended-spectrum beta-lactamases” (2009)
# What was measured:
# Type in all cases: functional
# Klebsiella aerogenes [1] = test: Antimicrobial activity against multidrug resistant Enterobacter aerogenes isolate 15 by broth dilution method in presence of 26.3 mg/L efflux pump inhibitor phenylalanine-arginine-beta-naphthylamide
# Klebsiella aerogenes [2] = test: Antimicrobial activity against multidrug resistant Enterobacter aerogenes isolate 16 by broth dilution method in presence of 26.3 mg/L efflux pump inhibitor phenylalanine-arginine-beta-naphthylamide
# Klebsiella aerogenes [3] = test: Antimicrobial activity against multidrug resistant Enterobacter aerogenes isolate 20 by broth dilution method in presence of 26.3 mg/L efflux pump inhibitor phenylalanine-arginine-beta-naphthylamide
# Klebsiella aerogenes [4] = test: Antimicrobial activity against multidrug resistant Enterobacter aerogenes isolate 21 by broth dilution method in presence of 26.3 mg/L efflux pump inhibitor phenylalanine-arginine-beta-naphthylamide
# Klebsiella aerogenes [5] = test: Antimicrobial activity against multidrug resistant Enterobacter aerogenes isolate 23 by broth dilution method in presence of 26.3 mg/L efflux pump inhibitor phenylalanine-arginine-beta-naphthylamide
# Klebsiella aerogenes [6] = test: Antimicrobial activity against multidrug resistant Enterobacter aerogenes isolate 24 by broth dilution method in presence of 26.3 mg/L efflux pump inhibitor phenylalanine-arginine-beta-naphthylamide
# Klebsiella aerogenes [7] = test: Antimicrobial activity against multidrug resistant Enterobacter aerogenes isolate 25 by broth dilution method in presence of 26.3 mg/L efflux pump inhibitor phenylalanine-arginine-beta-naphthylamide
# Klebsiella aerogenes [8] = test: Antimicrobial activity against multidrug resistant Enterobacter aerogenes isolate 26 by broth dilution method in presence of 26.3 mg/L efflux pump inhibitor phenylalanine-arginine-beta-naphthylamide
# Klebsiella pneumoniae [9] = test: Antimicrobial activity against multidrug resistant Klebsiella pneumoniae isolate 2 by broth dilution method in presence of 26.3 mg/L efflux pump inhibitor phenylalanine-arginine-beta-naphthylamide
# Klebsiella pneumoniae [10] = test: Antimicrobial activity against multidrug resistant Klebsiella pneumoniae isolate 4 by broth dilution method in presence of 26.3 mg/L efflux pump inhibitor phenylalanine-arginine-beta-naphthylamide
# Klebsiella pneumoniae [11] = test: Antimicrobial activity against multidrug resistant Klebsiella pneumoniae isolate 5 by broth dilution method in presence of 26.3 mg/L efflux pump inhibitor phenylalanine-arginine-beta-naphthylamide
# Klebsiella pneumoniae [12] = test: Antimicrobial activity against multidrug resistant Klebsiella pneumoniae isolate 7 by broth dilution method in presence of 26.3 mg/L efflux pump inhibitor phenylalanine-arginine-beta-naphthylamide
# Klebsiella pneumoniae [13] = test: Antimicrobial activity against multidrug resistant Klebsiella pneumoniae isolate 8 by broth dilution method in presence of 26.3 mg/L efflux pump inhibitor phenylalanine-arginine-beta-naphthylamide
# Klebsiella pneumoniae [14] = test: Antimicrobial activity against multidrug resistant Klebsiella pneumoniae isolate 9 by broth dilution method in presence of 26.3 mg/L efflux pump inhibitor phenylalanine-arginine-beta-naphthylamide
# Klebsiella pneumoniae [15] = test: Antimicrobial activity against multidrug resistant Klebsiella pneumoniae isolate 10 by broth dilution method in presence of 26.3 mg/L efflux pump inhibitor phenylalanine-arginine-beta-naphthylamide
# Klebsiella pneumoniae [16] = test: Antimicrobial activity against multidrug resistant Klebsiella pneumoniae isolate 12 by broth dilution method in presence of 26.3 mg/L efflux pump inhibitor phenylalanine-arginine-beta-naphthylamide
# Klebsiella pneumoniae [17] = test: Antimicrobial activity against multidrug resistant Klebsiella pneumoniae isolate 14 by broth dilution method in presence of 26.3 mg/L efflux pump inhibitor phenylalanine-arginine-beta-naphthylamide
# Klebsiella aerogenes [18] = test: Antimicrobial activity against multidrug resistant Enterobacter aerogenes isolate 4 by broth dilution method
# Klebsiella aerogenes [19] = test: Antimicrobial activity against multidrug resistant Enterobacter aerogenes isolate 5 by broth dilution method
# Klebsiella aerogenes [20] = test: Antimicrobial activity against multidrug resistant Enterobacter aerogenes isolate 6 by broth dilution method
# Klebsiella aerogenes [21] = test: Antimicrobial activity against multidrug resistant Enterobacter aerogenes isolate 7 by broth dilution method
# Klebsiella aerogenes [22] = test: Antimicrobial activity against multidrug resistant Enterobacter aerogenes isolate 9 by broth dilution method
# Klebsiella aerogenes [23] = test: Antimicrobial activity against multidrug resistant Enterobacter aerogenes isolate 10 by broth dilution method
# Klebsiella aerogenes [24] = test: Antimicrobial activity against multidrug resistant Enterobacter aerogenes isolate 12 by broth dilution method
# Klebsiella aerogenes [25] = test: Antimicrobial activity against multidrug resistant Enterobacter aerogenes isolate 13 by broth dilution method
# Klebsiella aerogenes [26] = test: Antimicrobial activity against multidrug resistant Enterobacter aerogenes isolate 16 by broth dilution method
# Klebsiella aerogenes [27] = test: Antimicrobial activity against multidrug resistant Enterobacter aerogenes isolate 17 by broth dilution method
# Klebsiella aerogenes [28] = test: Antimicrobial activity against multidrug resistant Enterobacter aerogenes isolate 19 by broth dilution method
# Klebsiella aerogenes [29] = test: Antimicrobial activity against multidrug resistant Enterobacter aerogenes isolate 21 by broth dilution method
# Klebsiella aerogenes [30] = test: Antimicrobial activity against multidrug resistant Enterobacter aerogenes isolate 22 by broth dilution method
# Klebsiella aerogenes [31] = test: Antimicrobial activity against multidrug resistant Enterobacter aerogenes isolate 23 by broth dilution method
# Klebsiella aerogenes [32] = test: Antimicrobial activity against multidrug resistant Enterobacter aerogenes isolate 25 by broth dilution method
# Klebsiella aerogenes [33] = test: Antimicrobial activity against multidrug resistant Enterobacter aerogenes isolate 26 by broth dilution method
# Klebsiella pneumoniae [34] = test: Antimicrobial activity against multidrug resistant Klebsiella pneumoniae isolate 2 by broth dilution method
# Klebsiella pneumoniae [35] = test: Antimicrobial activity against multidrug resistant Klebsiella pneumoniae isolate 4 by broth dilution method
# Klebsiella pneumoniae [36] = test: Antimicrobial activity against multidrug resistant Klebsiella pneumoniae isolate 5 by broth dilution method
# Klebsiella pneumoniae [37] = test: Antimicrobial activity against multidrug resistant Klebsiella pneumoniae isolate 10 by broth dilution method
# Klebsiella pneumoniae [38] = test: Antimicrobial activity against multidrug resistant Klebsiella pneumoniae isolate 11 by broth dilution method
# Klebsiella pneumoniae [39] = test: Antimicrobial activity against multidrug resistant Klebsiella pneumoniae isolate 12 by broth dilution method
# Klebsiella pneumoniae [40] = test: Antimicrobial activity against multidrug resistant Klebsiella pneumoniae isolate 13 by broth dilution method
# Klebsiella aerogenes [41] = test: Antimicrobial activity against multidrug resistant Enterobacter aerogenes ATCC 15038 by broth dilution method
# Klebsiella aerogenes [42] = test: Antimicrobial activity against multidrug resistant Enterobacter aerogenes isolate 3 by broth dilution method in presence of 26.3 mg/L efflux pump inhibitor phenylalanine-arginine-beta-naphthylamide
# Klebsiella aerogenes [43] = test: Antimicrobial activity against multidrug resistant Enterobacter aerogenes isolate 4 by broth dilution method in presence of 26.3 mg/L efflux pump inhibitor phenylalanine-arginine-beta-naphthylamide
# Klebsiella aerogenes [44] = test: Antimicrobial activity against multidrug resistant Enterobacter aerogenes isolate 6 by broth dilution method in presence of 26.3 mg/L efflux pump inhibitor phenylalanine-arginine-beta-naphthylamide
# Klebsiella aerogenes [45] = test: Antimicrobial activity against multidrug resistant Enterobacter aerogenes isolate 7 by broth dilution method in presence of 26.3 mg/L efflux pump inhibitor phenylalanine-arginine-beta-naphthylamide
# Klebsiella aerogenes [46] = test: Antimicrobial activity against multidrug resistant Enterobacter aerogenes isolate 8 by broth dilution method in presence of 26.3 mg/L efflux pump inhibitor phenylalanine-arginine-beta-naphthylamide
# Klebsiella aerogenes [47] = test: Antimicrobial activity against multidrug resistant Enterobacter aerogenes isolate 10 by broth dilution method in presence of 26.3 mg/L efflux pump inhibitor phenylalanine-arginine-beta-naphthylamide
# Klebsiella aerogenes [48] = test: Antimicrobial activity against multidrug resistant Enterobacter aerogenes isolate 12 by broth dilution method in presence of 26.3 mg/L efflux pump inhibitor phenylalanine-arginine-beta-naphthylamide
# Klebsiella aerogenes [49] = test: Antimicrobial activity against multidrug resistant Enterobacter aerogenes isolate 13 by broth dilution method in presence of 26.3 mg/L efflux pump inhibitor phenylalanine-arginine-beta-naphthylamide
structure (smiles),measurement,setting,value
CCn1cc(C(=O)O)c(=O)c2cc(F)c(N3CCNCC3)cc21 [NORFLOXACIN],MIC,Klebsiella aerogenes [1],128 µg/mL
same,MIC,Klebsiella aerogenes [2],128 µg/mL
same,MIC,Klebsiella aerogenes [3],128 µg/mL
same,MIC,Klebsiella aerogenes [4],128 µg/mL
same,MIC,Klebsiella aerogenes [5],256 µg/mL
same,MIC,Klebsiella aerogenes [6],128 µg/mL
same,MIC,Klebsiella aerogenes [7],128 µg/mL
same,MIC,Klebsiella aerogenes [8],128 µg/mL
same,MIC,Klebsiella pneumoniae [9],2 µg/mL
same,MIC,Klebsiella pneumoniae [10],128 µg/mL
same,MIC,Klebsiella pneumoniae [11],0.5 µg/mL
same,MIC,Klebsiella pneumoniae [12],0.25 µg/mL
same,MIC,Klebsiella pneumoniae [13],0.25 µg/mL
same,MIC,Klebsiella pneumoniae [14],≤ 0.06 µg/mL
same,MIC,Klebsiella pneumoniae [15],128 µg/mL
same,MIC,Klebsiella pneumoniae [16],0.25 µg/mL
same,MIC,Klebsiella pneumoniae [17],0.25 µg/mL
same,MIC,Klebsiella aerogenes [18],512 µg/mL
same,MIC,Klebsiella aerogenes [19],512 µg/mL
same,MIC,Klebsiella aerogenes [20],64 µg/mL
same,MIC,Klebsiella aerogenes [21],256 µg/mL
same,MIC,Klebsiella aerogenes [22],128 µg/mL
same,MIC,Klebsiella aerogenes [23],256 µg/mL
same,MIC,Klebsiella aerogenes [24],512 µg/mL
same,MIC,Klebsiella aerogenes [25],512 µg/mL
same,MIC,Klebsiella aerogenes [26],512 µg/mL
same,MIC,Klebsiella aerogenes [27],> 512 µg/mL
same,MIC,Klebsiella aerogenes [28],128 µg/mL
same,MIC,Klebsiella aerogenes [29],512 µg/mL
same,MIC,Klebsiella aerogenes [30],256 µg/mL
same,MIC,Klebsiella aerogenes [31],512 µg/mL
same,MIC,Klebsiella aerogenes [32],256 µg/mL
same,MIC,Klebsiella aerogenes [33],256 µg/mL
same,MIC,Klebsiella pneumoniae [34],4 µg/mL
same,MIC,Klebsiella pneumoniae [35],128 µg/mL
same,MIC,Klebsiella pneumoniae [36],2 µg/mL
same,MIC,Klebsiella pneumoniae [37],128 µg/mL
same,MIC,Klebsiella pneumoniae [38],64 µg/mL
same,MIC,Klebsiella pneumoniae [39],8 µg/mL
same,MIC,Klebsiella pneumoniae [40],> 256 µg/mL
same,MIC,Klebsiella aerogenes [41],0.125 µg/mL
same,MIC,Klebsiella aerogenes [42],256 µg/mL
same,MIC,Klebsiella aerogenes [43],512 µg/mL
same,MIC,Klebsiella aerogenes [44],2 µg/mL
same,MIC,Klebsiella aerogenes [45],256 µg/mL
same,MIC,Klebsiella aerogenes [46],128 µg/mL
same,MIC,Klebsiella aerogenes [47],256 µg/mL
same,MIC,Klebsiella aerogenes [48],512 µg/mL
same,MIC,Klebsiella aerogenes [49],512 µg/mL
O=C(N[C@H](CO)[C@H](O)c1ccc([N+](=O)[O-])cc1)C(Cl)Cl [CHLORAMPHENICOL],MIC,Klebsiella aerogenes [1],64 µg/mL
same,MIC,Klebsiella aerogenes [2],64 µg/mL
same,MIC,Klebsiella aerogenes [3],64 µg/mL
same,MIC,Klebsiella aerogenes [4],128 µg/mL
same,MIC,Klebsiella aerogenes [5],64 µg/mL
same,MIC,Klebsiella aerogenes [6],64 µg/mL
same,MIC,Klebsiella aerogenes [7],64 µg/mL
same,MIC,Klebsiella aerogenes [8],32 µg/mL
same,MIC,Klebsiella pneumoniae [9],64 µg/mL
same,MIC,Klebsiella pneumoniae [10],2 µg/mL
same,MIC,Klebsiella pneumoniae [11],2 µg/mL
same,MIC,Klebsiella pneumoniae [12],2 µg/mL
same,MIC,Klebsiella pneumoniae [13],2 µg/mL
same,MIC,Klebsiella pneumoniae [14],8 µg/mL
same,MIC,Klebsiella pneumoniae [15],2 µg/mL
same,MIC,Klebsiella pneumoniae [16],2 µg/mL
same,MIC,Klebsiella pneumoniae [17],2 µg/mL
same,MIC,Klebsiella aerogenes [18],1020 µg/mL
same,MIC,Klebsiella aerogenes [19],> 1020 µg/mL
same,MIC,Klebsiella aerogenes [20],256 µg/mL
same,MIC,Klebsiella aerogenes [21],1020 µg/mL
same,MIC,Klebsiella aerogenes [22],256 µg/mL
same,MIC,Klebsiella aerogenes [23],1020 µg/mL
same,MIC,Klebsiella aerogenes [24],1020 µg/mL
same,MIC,Klebsiella aerogenes [25],1020 µg/mL
same,MIC,Klebsiella aerogenes [26],512 µg/mL
same,MIC,Klebsiella aerogenes [27],1020 µg/mL
same,MIC,Klebsiella aerogenes [28],1020 µg/mL
same,MIC,Klebsiella aerogenes [29],1020 µg/mL
same,MIC,Klebsiella aerogenes [30],1020 µg/mL
same,MIC,Klebsiella aerogenes [31],512 µg/mL
same,MIC,Klebsiella aerogenes [32],512 µg/mL
same,MIC,Klebsiella aerogenes [33],256 µg/mL
same,MIC,Klebsiella pneumoniae [34],256 µg/mL
same,MIC,Klebsiella pneumoniae [35],4 µg/mL
same,MIC,Klebsiella pneumoniae [36],32 µg/mL
same,MIC,Klebsiella pneumoniae [37],4 µg/mL
same,MIC,Klebsiella pneumoniae [38],8 µg/mL
same,MIC,Klebsiella pneumoniae [39],64 µg/mL
same,MIC,Klebsiella pneumoniae [40],128 µg/mL
same,MIC,Klebsiella aerogenes [41],2 µg/mL
same,MIC,Klebsiella aerogenes [42],128 µg/mL
same,MIC,Klebsiella aerogenes [43],128 µg/mL
same,MIC,Klebsiella aerogenes [44],4 µg/mL
same,MIC,Klebsiella aerogenes [45],128 µg/mL
same,MIC,Klebsiella aerogenes [46],64 µg/mL
same,MIC,Klebsiella aerogenes [47],128 µg/mL
same,MIC,Klebsiella aerogenes [48],128 µg/mL
same,MIC,Klebsiella aerogenes [49],64 µg/mL
